Tests used:
[1] = Liver microsomal metabolism assay, human; format: in vitro ADME; settings: pH 7.4, human liver microsomes 0.5 mg/mL, compound 1 μM, 37° C.; for microsomal CLint at 1 μM: read-out: Human liver microsome assay CLint; for half-life at 1 μM: read-out: Human liver microsome assay t1/2
Method: (§1) (3) Liver Microsomal Metabolism Assay
(§2) […]; Coenzyme (NADPH/NADH): 1 mM, Sigma Life Science; Magnesium chloride: 5 mM, 100 mM phosphate buffer (pH 7.4).
(§3) Preparation of stock solutions: Powder of the compounds were accurately weighed and dissolved in DMSO to 5 mM.
(§4) Preparation of phosphate buffer (100 mM, pH7.4): A pre-prepared 0.5M potassium dihydrogen phosphate (150 mL) was mixed with 0.5M dibasic potassium phosphate (700 mL). The pH of the mixture was adjusted to 7.4 with 0.5M dibasic potassium phosphate solution. The mixture was diluted 5-fold with ultrapure water before use, and magnesium chloride was added to obtain a phosphate buffer (100 mM) containing 100 mM potassium phosphate, 3.3 mM magnesium chloride, pH 7.4.
(§5) A NADPH regeneration system solution (containing 6.5 mM NADP, 16.5 mM G-6-P, 3 U/mL G-6-P D, 3.3 mM magnesium chloride) was prepared and placed on wet ice prior to use.
(§6) Incubation of the samples: The stock solutions of the respective compounds were respectively diluted to 0.25 mM with an aqueous solution containing 70% acetonitrile, and used as a working solution, ready for use. 398 μL of the dilution of human liver microsomes or rat liver microsomes were added to 96-well incubation plates (N=2), respectively, and 2 μL of 0.25 mM working solution was added and mixed.
(§7) Metabolic stability assay: 300 μL of pre-chilled stop solution was added to each well of 96-well deep well plates and placed on ice as stop plates. The 96-well incubation plates and NADPH regeneration system were placed in a 37° C. water bath box, shaken at 100 rpm and pre-incubated for 5 min. 80 μL of incubation solution was taken out from each well of the incubation plates and added to the stop plates, mixed, and replenished with 20 μL of NADPH regeneration system solution as a 0-min sample. 80 μL of NADPH regeneration system solution was added to each well of the incubation plates to start the reaction and start counting. […] Separately, 100 μL of the reaction solutions was taken at 10, 30, and 90 min reaction, respectively, added to stop plates, and vortexed for 3 minutes to terminate the reaction. The stop plates were centrifuged at 5000×g at 4° C. for 10 min. 100 μL of the supernatant was added to a 96-well plate to which 100 μL of distilled water was previously added, mixed, and analyzed by LC-MS/MS.
(§8) Data analysis: The peak areas of the corresponding compounds and internal standard were detected by LC-MS/MS system, and the ratio of the peak area of the compounds to the internal standard was calculated.
(§9) The metabolic stability of the compounds in human and rat liver microsomes was evaluated by simultaneously testing and comparing the compounds disclosed herein and the non-deuterated compound. […]

[2] = tested on: HCC-78 (SLC34A2-ROS1) cells; assay: cells; settings: Homo sapiens, HCC78, 72 h, read-out: HCC-78 IC50
Method: (§10) Assay methods: 1. Preparation of cell plates: Ba/F3, and Ba/F3 Bcr-Abl T315I cells were separately seeded in 96-well plates, and 8 ng/ml IL-3 was added to Ba/F3 cells. The cell plates were placed in a carbon dioxide incubator for culture overnight. 2. […] 3. Treatment of cells with compounds: The compounds were transferred to cell plates at a starting concentration of 10 μM. The cell plates were incubated in a carbon dioxide incubator for 3 days. 4. Detection: CellTiter-Glo reagent was added to the cell plates and incubated for 30 minutes at room temperature to stabilize the luminescence signal. Readings were performed using a PerkinElmer Envision multi-label analyzer.

KM12 (TPM3-TRKA) cells = assay: cells; settings: Homo sapiens, KM12, 72 h, read-out: KM12 IC50
Method: as §10

[3] = Pharmacokinetic assay in rats; format: in vivo, SD rat; settings: male SD rats, i.g., 3 mg/kg; for AUC(0-t) / Cmax / MRT / Tmax: rat, plasma, po
Method: (4) Pharmacokinetic Assay in Rats Assay objective: after administration of test compounds to rats, the pharmacokinetic behavior of the compounds disclosed herein was investigated. Assay Animals: Species and strains: SD rat grade: SPF grade Gender and quantity: male, 6 Weight range: 180 to 220 g (the actual weight range was from 187 to 197 g) Assay Procedure: Before blood samples were collected, 20 μL of 2 M sodium fluoride solution (esterase inhibitor) was previously added to an EDTA-K2 anticoagulant tube, dried in an 80° C. oven, and placed in a 4° C. refrigerator. Rats (male, weighing 187 to 197 g) were randomly divided into 2 groups, and were fasted overnight in the afternoon before the experiment but were allowed to drink water freely. Food was given 4 hours after the administration. […] About 100-200 μL of blood was taken from the orbital vein of rats at 15 min, 30 min, 1, 2, 3, 5, 8 and 10 h after administration, placed in a 0.5 mL Eppendorf tube with EDTA-K2 anticoagulant and mixed immediately. After anticoagulation, the tube was gently inverted 5-6 times as quickly as possible. After the blood was taken, it was placed in an ice box, and then within 30 min, the blood sample was centrifuged for 10 min at 4000 rpm and 4° C. to separate the plasma. Immediately after collection of all plasma, it was stored at −20° C. The concentration of the drug in plasma at each time point was determined after sample collection at all time points. Based on the data of the average concentration of the drug in plasma versus time after administration obtained as described above, pharmacokinetics-related parameters of male SD rats after the i.g. administration of test compounds (3 mg/kg) were calculated using the Winnonin software according to non-compartment statistical moment theory.

Ba/F3 EML-ALK cells = assay: Cytotoxicity assay (cell viability, CellTiter-Glo), Ba/F3 EML-ALK; format: cell-based; settings: Mus musculus, BaF3, 72 h, read-out: Ba/F3 EML-ALK IC50
[4] = Liver microsomal metabolism assay, rat; format: in vitro ADME; settings: SD, pH 7.4, rat liver microsomes 0.5 mg/mL, compound 1 μM, 37° C.; for microsomal CLint at 1 μM: read-out: Rat liver microsome assay CLint; for half-life at 1 μM: read-out: Rat liver microsome assay t1/2
Method: as §1, §2, §3, §4, §5, §6, §7, §8, §9

[5] = tested on: Ba/F3 EML-ALK^L1196M cells; assay: Cytotoxicity assay (cell viability, CellTiter-Glo), Ba/F3 EML-ALK L1196M; format: cell-based; settings: Mus musculus, BaF3, 72 h, read-out: Ba/F3 EML-ALK^L1196M IC50

microsomal CLint at 1 μM [1] [µL/min/mg] | half-life at 1 μM [1] [h] | IC50 [2] [nM] | IC50 (KM12 (TPM3-TRKA) cells) [nM] | Cl_pred [3] [mL/min/kg] | F [3] [%] | AUC(0-t) [3] [ng·h/mL] | Cmax [3] [ng/mL] | MRT [3] [h] | Tmax [3] [h] | microsomal CLint at 1 μM [4] [µL/min/mg] | half-life at 1 μM [4] [h] | Compound | IC50 (Ba/F3 EML-ALK cells) [nM] | IC50 [5] [nM]
34.7 | 0.665 | 10 to 50 | 1 to 10 | 155 | 7.43 | 1070 | 145 | 5.31 | 3.33 | 21.3 | 1.09 | [2H]C([2H])([2H])N1CCN(c2ccc(C(=O)Nc3n[nH]c4ccc(Cc5cc(F)cc(F)c5)cc34)c(NC3CCOCC3)c2)CC1 [Compound T-1, N-(5-(3,5-difluorobenzyl)-1H-indazol-3-yl)-4-(4-(methyl-d3)piperazin-1-yl)-2-((tetrahydro-2H-pyran-4-yl)amino)benzamide] | 50 to 150 | 
48.1 | 0.48 | 10 to 50 | 1 to 10 | 114 | 9.23 | 1460 | 236 | 4.24 | 2.17 | 32.9 | 0.703 | CN1CCN(c2ccc(C(=O)Nc3n[nH]c4ccc(Cc5cc(F)cc(F)c5)cc34)c(NC3CCOCC3)c2)CC1 [Entrectinib, N-(5-(3,5-difluorobenzyl)-1H-indazol-3-yl)-4-(4-methylpiperazin-1-yl)-2-((tetrahydro-2H-pyran-4-yl)amino)benzamide, reference compound] | 50 to 150 | > 200
